Data as given in the supplement of paper PMC10307832.

Compound: Cc1ccc(NC(=O)c2ccc(CN3CCN(C)CC3)cc2)cc1Nc1nccc(-c2cccnc2)n1 [Imatinib]
Test: relative viability (nuclei count vs DMSO), 5 days (fraction); higher = more cells survive
Outline: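 Viability was read as treated-well nuclei divided by vehicle-well nuclei, using the median across plates. Lung cancer cell lines in 1536-well plates were kept overnight at 37 °C, pinned with five √10-spaced library-drug doses, and after 5 days were Hoechst-stained, imaged at 4× and counted in MetaXpress. Plates passed only with control CV below 25% and at least one doubling.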

Cell Line	relative viability (0.02 µM)	relative viability (0.06325 µM)	relative viability (0.6325 µM)	relative viability (2 µM)	relative viability (0.2 µM)
NCI-H838	1.03	1.09	1	1.01	
LXF-289	1.06	0.998	1.01	0.976	1.1
HCC-15	1.03		1.1		1.1
NCI-H1437	1.11		1.04	0.957	1.12
LK-2	1.05	0.805	0.678	0.97	1.08
201T	1.01		0.997	0.965	1.02
LOU-NH91	0.968	1.09	0.964	0.874	0.966
NCI-H2342	0.896	0.891	0.943	0.998	0.972
BEN	1.09	0.82	0.871	0.912	0.897
NCI-H647	0.976	1.05	0.991	0.962	1.12
HCC-78	0.901	0.797	0.89	0.904	1.06
NCI-H2085		0.826	1.04	1.02	1.01
NCI-H1651	1.1	0.876	0.967	0.948	1.03
NCI-H2126	1.02	0.696	0.955	0.936	1.08
NCI-H1734	1.04		0.996	0.876	1.09
LU99A	1.03	1.05	0.964	1.17	0.977
NCI-H1755	1.08	0.988	0.958	1.01	
NCI-H1915	1.09		1.03	0.967	1.02
HARA	1.06		0.993		1.07
NCI-H2228		0.927		1.08	1.33

Cell Line	relative viability (0.02 µM)	relative viability (0.06325 µM)	relative viability (0.6325 µM)	relative viability (2 µM)	relative viability (0.2 µM)
COR-L 105	1.06	0.979	0.891	0.9	1
Calu-6	1.08	1.08	1.06	1.02	1.16
CAL-12T	1.04	0.865	1.05	0.943	1.13
HCC-44	0.998	0.945		0.893	1.12
SK-MES-1		1.05	1.01	1.04	1.21
HCC-827		1.04	1.05	1.03	
NCI-H2087	1.11		1.16		1.13
NCI-H1666		0.958	1.15	1.01	0.98
EMC-BAC-2	1.03	0.952	1.09	1.01	1.13
NCI-H2023	1.06	0.78		0.985	1.14
NCI-H2405		0.721	0.927	1	1.02
NCI-H1299	1.05		1.02	1.04	1.07
NCI-H460	1.1	0.985	0.925	1	1.11
NCI-H3122	1.02		1.03	1.08	1.1
LC-2-ad	1.04	0.715	0.973	1	0.986
EBC-1	1.13	0.878	1.02		1.17
NCI-H596		0.903	1.01	0.907	1.03
LCLC-103H	1.02	0.806	0.964		1.12
HOP-62	1.15		0.999	0.943	1.2
